Experimental data published in patent US10689365B2, “Substituted 2-alkylimidazolylcarboxamides as pesticides” (Bayer CropScience Aktiengesellschaft, priority 2016, dated 2020).
Read-outs that look alike come from different tables or passages of the source.

Key:
Aphis gossypii = Aphis gossypii - spray test (APHIGO S), cotton plants; type: in vivo; details: 144 h, 6 dat, read-out: % efficacy
Method: Aphis gossypii—Spray Test (APHIGO S)
(§1) Solvent: 14 parts by weight of dimethylformamide
(§2) Emulsifier: alkylaryl polyglycol ether
(§3) To produce a suitable active compound preparation, 1 part by weight of active compound is dissolved using the stated parts by weight of solvent and made up with water containing an emulsifier concentration of 1000 ppm until the desired concentration is attained. To produce further test concentrations, the formulation is diluted with emulsifier-containing water. If the addition of ammonium salts or/and penetrants is required, these are each added in a concentration of 1000 ppm to the formulation solution.
Cotton plants (Gossypium hirsutum) heavily infested by the cotton aphid (Aphis gossypii) are sprayed with an active ingredient formulation of the desired concentration.
After the desired time, the kill in % is determined. 100% means that all the aphids have been killed; 0% means that no aphids have been killed.

Myzus persicae [1] = experiment: Myzus persicae - spray test (Chinese cabbage leaf discs); type: in vivo; details: Myzus persicae, foliar; application rate 500 g/ha, after 5-6 days; read-out: efficacy
Method: Myzus persicae—Spray Test
Solvent: 78 parts by weight of acetone • • 1.5 parts by weight of dimethylformamide
as §2
as §3, with “water.” for “water. If the addition of ammonium salts or/and penetrants is required, these are each added in a concentration of 1000 ppm to the formulation solution.”
Discs of Chinese cabbage leaves (Brassica pekinensis) infested by all stages of the green peach aphid (Myzus persicae) are sprayed with an active ingredient formulation of the desired concentration.
After 5-6 days, the efficacy in % is determined. 100% means that all the aphids have been killed; 0% means that no aphids have been killed.

Myzus persicae [2] = experiment: Myzus persicae - drench test (MYZUPE D), Savoy cabbage in soil; type: in vivo; details: 240 h, 10 dat, read-out: % efficacy
Method: Myzus persicae—Drench Test (MYZUPE D)
To produce a suitable active compound preparation, 1 part by weight of active compound is mixed with the specified amounts of solvent and emulsifier, and the concentrate is diluted with water to the desired concentration, it being necessary to include the volume of soil which is drenched in the calculation. It should be ensured that a concentration of 40 ppm of emulsifier in the soil is not exceeded. To produce further test concentrations, water is used for dilution.
Savoy cabbage (Brassica oleracea) in pots with soil and infested by all stages of the green peach aphid (Myzus persicae) is watered with an active compound preparation of the desired concentration.
(§4) After the desired period of time, the efficacy in % is determined. 100% means that all the aphids have been killed; 0% means that no aphids have been killed.

[3] = log P by HPLC on reversed-phase (C18) columns, OECD Guideline 117; type: physicochemical; details: reversed-phase (C18) HPLC column
Method: The log P values were determined in accordance with OECD Guideline 117 (EC Directive 92/69/EEC) by HPLC (high-performance liquid chromatography) using reversed-phase (RP) columns (C18), by the following methods:
[a] The LC-MS determination in the acidic range was carried out at pH 2.7 with 0.1% aqueous formic acid and acetonitrile (contains 0.1% formic acid) as mobile phases; linear gradient from 10% acetonitrile to 95% acetonitrile.
[b] LC-MS determination in the neutral range was carried out at pH 7.8 with 0.001 molar aqueous ammonium hydrogencarbonate solution and acetonitrile as mobile phases; linear gradient from 10% acetonitrile to 95% acetonitrile.

Myzus persicae [4] = experiment: Myzus persicae - spray test (MYZUPE S), bell pepper plants; type: in vivo; details: 144 h, 6 dat, read-out: % efficacy
Method: Myzus persicae—Spray Test (MYZUPE S)
as §1, §2
as §3, with “with” for “using”, “specified” for “stated”
Bell pepper plants (Capsicum annuum) severely infested with the green peach aphid (Myzus persicae) are treated by spraying with the active ingredient formulation in the desired concentration.
After the desired time, the kill in % is determined. 100% means that all the animals have been killed; 0% means that no animals have been killed.

Myzus persicae [5] = experiment: Myzus persicae - spray test (MYZUPE), Chinese cabbage leaf discs; type: in vivo; details: foliar; for percent efficacy (aphid mortality) at 20 g/ha: 20 g of ai/ha; for percent efficacy (aphid mortality) at 100 g/ha: 100 g of ai/ha
Method: Myzus persicae—Spray Test (MYZUPE)
Solvent: 78.0 parts by weight of acetone • • 1.5 parts by weight of dimethylformamide
as §2
as §3, with “water.” for “water. If the addition of ammonium salts or/and penetrants is required, these are each added in a concentration of 1000 ppm to the formulation solution.”
Discs of Chinese cabbage leaves (Brassica pekinensis) infested by all stages of the green peach aphid (Myzus persicae) are sprayed with an active compound preparation of the desired concentration.
as §4

Myzus persicae [6] = experiment: Myzus persicae - oral test; type: in vivo; details: Myzus persicae, po, 120 h; application rate 20 ppm, after 5 days; read-out: efficacy
Method: (§5) Solvent: 100 parts by weight of acetone
(§6) To produce a suitable preparation of active compound, 1 part by weight of active compound is dissolved using the specified parts by weight of solvent and made up with water until the desired concentration is attained.
(§7) 50 μl of the active compound preparation are transferred into microtitre plates and made up to a final volume of 200 μl with 150 μl of IPL41 insect medium (33%+15% sugar). Subsequently, the plates are sealed with parafilm, which a mixed population of green peach aphids (Myzus persicae) within a second microtitre plate is able to puncture and imbibe the solution through it.
After 5 days, the efficacy in % is determined. 100% means that all the aphids have been killed; 0% means that no aphids have been killed.

Myzus persicae [7] = experiment: Myzus persicae - oral test (MYZUPE O); type: in vivo; details: read-out: % efficacy
Method: Myzus persicae—Oral Test (MYZUPE O)
as §5, §6, §7, §4

[8] = acidic range, pH 2.7, 0.1% aqueous formic acid/acetonitrile, read-out: logP[a]
[9] = neutral range, pH 7.8, aqueous ammonium hydrogencarbonate/acetonitrile, read-out: logP[n]

| Compound | chromatographic logP [3, 8] | chromatographic logP [3, 9] | Emax at 0.8 ppm (Aphis gossypii) [%] | Emax at 4 ppm (Aphis gossypii; 4 ppm) [%] | pest or weed control at 500 g/ha (Myzus persicae [1]) [%] | Emax at 0.16 ppm (Myzus persicae [2]) [%] | Emax at 0.16 ppm (Myzus persicae [4]) [%] | percent efficacy (aphid mortality) at 20 g/ha (Myzus persicae [5]; 120 h, 5 dat) [%] | percent efficacy (aphid mortality) at 100 g/ha (Myzus persicae [5]; 120 h, 5 dat) [%] | pest or weed control at 20 ppm (Myzus persicae [6]) [%] | Emax at 4 ppm (Myzus persicae [7]; 120 h, 5 dat) [%] | percent efficacy (aphid mortality) at 100 g/ha (Myzus persicae [5]; 144 h, 6 dat) [%] | Emax at 4 ppm (Myzus persicae [7]; 144 h, 6 dat) [%] | percent kill (mortality) of aphids at a fixed dose at 0.8 ppm (Aphis gossypii) [%] | percent kill (mortality) of aphids at a fixed dose at 4 ppm (Aphis gossypii; 4 ppm) [%] |
| --- | --- | --- | --- | --- | --- | --- | --- | --- | --- | --- | --- | --- | --- | --- | --- |
| CN(C(=O)c1cnc(CSCC2CC2)n1C)c1cccnc1 [Example I-1-35] | 0.96 | 1.57 | 99 | 100 | 100 | 98 | 100 | 90 | 90 | 100 | 100 |  |  |  |  |
| CN(C(=O)c1cnc(CSCC(C)(C)C)n1C)c1cccnc1 [Example I-1-36] | 1.42 | 2.06 | 98 | 98 | 90 | 80 | 75 | 90 | 90 | 100 | 100 |  |  |  |  |
| Cc1ncc(C(=O)N(C)c2cccnc2)n1C [reference compound] |  |  |  | 40 |  | 30 | 0 |  |  |  |  |  |  | 0 |  |
| CCc1ncc(C(=O)N(C)c2cccnc2)n1C [reference compound] |  |  |  | 45 |  | 0 | 0 |  |  |  |  |  |  | 0 |  |

The next lines start with results.

| chromatographic logP [3, 8] | chromatographic logP [3, 9] | Compound | Emax at 0.8 ppm (Aphis gossypii) [%] | Emax at 4 ppm (Aphis gossypii; 4 ppm) [%] | pest or weed control at 500 g/ha (Myzus persicae [1]) [%] | Emax at 0.16 ppm (Myzus persicae [2]) [%] | Emax at 0.16 ppm (Myzus persicae [4]) [%] | percent efficacy (aphid mortality) at 20 g/ha (Myzus persicae [5]; 120 h, 5 dat) [%] | percent efficacy (aphid mortality) at 100 g/ha (Myzus persicae [5]; 120 h, 5 dat) [%] | pest or weed control at 20 ppm (Myzus persicae [6]) [%] | Emax at 4 ppm (Myzus persicae [7]; 120 h, 5 dat) [%] | percent efficacy (aphid mortality) at 100 g/ha (Myzus persicae [5]; 144 h, 6 dat) [%] | Emax at 4 ppm (Myzus persicae [7]; 144 h, 6 dat) [%] | percent kill (mortality) of aphids at a fixed dose at 0.8 ppm (Aphis gossypii) [%] | percent kill (mortality) of aphids at a fixed dose at 4 ppm (Aphis gossypii; 4 ppm) [%] |
| --- | --- | --- | --- | --- | --- | --- | --- | --- | --- | --- | --- | --- | --- | --- | --- |
| 0.35 | 0.75 | CN(C(=O)c1cnc(Cn2nccn2)n1C)c1cccnc1 [Example I-1-47] | 100 | 100 | 100 | 90 | 90 |  |  | 100 |  | 90 | 100 |  |  |
| 0.71 | 1.04 | CN(C(=O)c1cnc(CS(=O)(=O)CC2CC2)n1C)c1cccnc1 [Example I-1-48] |  |  | 100 | 90 | 99 | 100 | 100 | 100 | 100 |  |  | 100 | 100 |
| 0.71 |  | CCSCc1ncc(C(=O)N(CC)c2cccnc2)n1C [Example I-1-49] | 98 | 100 | 90 | 95 | 95 | 70 | 70 | 100 | 100 |  |  |  |  |
